# Assay results from ChEMBL document CHEMBL1150184, “CAF-603: a new antifungal carotane sesquiterpene. Isolation and structure elucidation” (1990).
# Columns and labels:
# Format in all cases: functional
# [1] = tested on: Meyerozyma guilliermondii; assay: Antifungal activity against Candida guilliermondii JTD after 24 hrs in Sabouraud agar medium by agar dilution method
# [2] = tested on: Candida albicans; assay: microbe, parasite or virus in culture; settings: NHL 4019, 24 h
# Description: Antifungal activity against Candida albicans NHL 4019 after 24 hrs in Yeast morphology agar medium by agar dilution method
# [3] = tested on: Pichia kudriavzevii; assay: microbe, parasite or virus in culture; settings: IAM 4801, 24 h
# Description: Antifungal activity against Candida krusei IAM 4801 after 24 hrs in Yeast morphology agar medium by agar dilution method
# [4] = tested on: Candida albicans; assay: Antifungal activity against Candida albicans MCNH2 after 24 hrs in Sabouraud agar medium by agar dilution method; settings: MCNH2, 24 h
# [5] = tested on: Aspergillus fumigatus; assay: Antifungal activity against Aspergillus fumigatus IAM 2400 after 24 hrs in Sabouraud agar medium by agar dilution method; settings: IAM 2400, 24 h
# [6] = tested on: Pichia kudriavzevii; assay: microbe, parasite or virus in culture; settings: IAM 4801, 24 h; remark: listed apart in the source
# Description: Antifungal activity against Candida krusei IAM 4801 after 24 hrs in Sabouraud agar medium by agar dilution method
# [7] = tested on: Rhizopus arrhizus; assay: microbe, parasite or virus in culture; settings: IAM 6052, 24 h
# Description: Antifungal activity against Rhizopus arrhizus IAM 6052 after 24 hrs in Sabouraud agar medium by agar dilution method
# [8] = tested on: Candida albicans; assay: Antifungal activity against Candida albicans MCNH1 after 24 hrs in Yeast morphology agar medium by agar dilution method; settings: MCNH1, 24 h
# [9] = tested on: Candida tropicalis; assay: microbe, parasite or virus in culture; settings: IAM 4924, 24 h
# Description: Antifungal activity against Candida tropicalis IAM 4924 after 24 hrs in Yeast morphology agar medium by agar dilution method
# [10] = tested on: Saccharomyces cerevisiae; assay: microbe, parasite or virus in culture; settings: IAM 4203, 24 h
# Description: Antifungal activity against Saccharomyces cerevisiae IAM 4203 after 24 hrs in Sabouraud agar medium by agar dilution method
# [11] = tested on: Candida albicans; assay: microbe, parasite or virus in culture; settings: NHL 4019, 24 h; remark: listed apart in the source
# Description: Antifungal activity against Candida albicans NHL 4019 after 24 hrs in Sabouraud agar medium by agar dilution method
# [12] = tested on: Saccharomyces cerevisiae; assay: microbe, parasite or virus in culture; settings: IAM 4203, 24 h; remark: listed apart in the source
# Description: Antifungal activity against Saccharomyces cerevisiae IAM 4203 after 24 hrs in Yeast morphology agar medium by agar dilution method
# [13] = tested on: Saccharomyces cerevisiae; assay: Antifungal activity against Saccharomyces cerevisiae IAM 4500 after 24 hrs in Sabouraud agar medium by agar dilution method; settings: IAM 4500, 24 h
# [14] = tested on: Candida albicans; assay: Antifungal activity against Candida albicans MCNH4 after 24 hrs in Yeast morphology agar medium by agar dilution method; settings: MCNH4, 24 h
# [15] = tested on: Candida albicans; assay: Antifungal activity against Candida albicans MCNH3 after 24 hrs in Sabouraud agar medium by agar dilution method; settings: MCNH3, 24 h
# [16] = tested on: Candida albicans; assay: Antifungal activity against Candida albicans MCNH3 after 24 hrs in Yeast morphology agar medium by agar dilution method; settings: MCNH3, 24 h
# [17] = tested on: Aspergillus fumigatus; assay: Antifungal activity against Aspergillus fumigatus IAM 2400 after 24 hrs in Yeast morphology agar medium by agar dilution method; settings: IAM 2400, 24 h
# [18] = tested on: Candida albicans; assay: microbe, parasite or virus in culture; settings: IAM 4888, 24 h
# Description: Antifungal activity against Candida albicans IAM 4888 after 24 hrs in Yeast morphology agar medium by agar dilution method
# [19] = tested on: Aspergillus niger; assay: Antifungal activity against Aspergillus niger NHL after 24 hrs in Sabouraud agar medium by agar dilution method
# [20] = tested on: Aspergillus niger; assay: Antifungal activity against Aspergillus niger NHL after 24 hrs in Yeast morphology agar medium by agar dilution method
# [21] = tested on: Nakaseomyces glabratus; assay: microbe, parasite or virus in culture; settings: OUT 6189, 24 h
# Description: Antifungal activity against Torulopsis glabrata OUT 6189 after 24 hrs in Sabouraud agar medium by agar dilution method
# [22] = tested on: Candida albicans; assay: Antifungal activity against Candida albicans MCNH4 after 24 hrs in Sabouraud agar medium by agar dilution method; settings: MCNH4, 24 h
# [23] = tested on: Candida albicans; assay: Antifungal activity against Candida albicans MCNH2 after 24 hrs in Yeast morphology agar medium by agar dilution method; settings: MCNH2, 24 h
# [24] = tested on: Candida albicans; assay: Antifungal activity against Candida albicans MCNH1 after 24 hrs in Sabouraud agar medium by agar dilution method; settings: MCNH1, 24 h
# [25] = tested on: Saccharomyces cerevisiae; assay: Antifungal activity against Saccharomyces cerevisiae IAM 4500 after 24 hrs in Yeast morphology agar medium by agar dilution method; settings: IAM 4500, 24 h
# [26] = tested on: Candida albicans; assay: microbe, parasite or virus in culture; settings: IAM 4888, 24 h; remark: listed apart in the source
# Description: Antifungal activity against Candida albicans IAM 4888 after 24 hrs in Sabouraud agar medium by agar dilution method
# [27] = tested on: Candida tropicalis; assay: microbe, parasite or virus in culture; settings: IAM 4924, 24 h; remark: listed apart in the source
# Description: Antifungal activity against Candida tropicalis IAM 4924 after 24 hrs in Sabouraud agar medium by agar dilution method
# [28] = tested on: Meyerozyma guilliermondii; assay: Antifungal activity against Candida guilliermondii JTD after 24 hrs in Yeast morphology agar medium by agar dilution method
# [29] = tested on: Rhizopus arrhizus; assay: microbe, parasite or virus in culture; settings: IAM 6052, 24 h; remark: listed apart in the source
# Description: Antifungal activity against Rhizopus arrhizus IAM 6052 after 24 hrs in Yeast morphology agar medium by agar dilution method
Compound,MIC [1],MIC [2],MIC [3],MIC [4],MIC [5],MIC [6],MIC [7],MIC [8],MIC [9],MIC [10],MIC [11],MIC [12],MIC [13],MIC [14],MIC [15],MIC [16],MIC [17],MIC [18],MIC [19],MIC [20],further results
CC1=CC[C@@]2(C)C[C@H](O)[C@@](O)(C(C)C)[C@@H]2CC1,> 100 µg/mL,0.4 µg/mL,25 µg/mL,3.13 µg/mL,25 µg/mL,25 µg/mL,> 100 µg/mL,3.13 µg/mL,50 µg/mL,3.13 µg/mL,0.8 µg/mL,1.56 µg/mL,> 100 µg/mL,1.56 µg/mL,12.5 µg/mL,3.13 µg/mL,12.5 µg/mL,1.56 µg/mL,100 µg/mL,12.5 µg/mL,MIC [21]: 50 µg/mL; MIC [22]: 6.25 µg/mL; MIC [23]: 1.56 µg/mL; MIC [24]: 6.25 µg/mL; MIC [25]: > 100 µg/mL; MIC [26]: 12.5 µg/mL; MIC [27]: > 100 µg/mL; MIC [28]: > 100 µg/mL; MIC [29]: > 100 µg/mL
Clc1ccc(COC(Cn2ccnc2)c2ccc(Cl)cc2Cl)c(Cl)c1.O=[N+]([O-])O (stereo not drawn) [MICONAZOLE NITRATE],6.25 µg/mL,< 0.05 µg/mL,0.8 µg/mL,6.25 µg/mL,0.8 µg/mL,0.8 µg/mL,0.4 µg/mL,12.5 µg/mL,6.25 µg/mL,6.25 µg/mL,0.05 µg/mL,1.56 µg/mL,3.13 µg/mL,6.25 µg/mL,3.13 µg/mL,12.5 µg/mL,1.56 µg/mL,3.13 µg/mL,3.13 µg/mL,3.13 µg/mL,MIC [21]: 6.25 µg/mL; MIC [22]: 6.25 µg/mL; MIC [23]: 12.5 µg/mL; MIC [24]: 12.5 µg/mL; MIC [25]: 12.5 µg/mL; MIC [26]: 6.25 µg/mL; MIC [27]: 12.5 µg/mL; MIC [28]: 3.13 µg/mL; MIC [29]: 0.2 µg/mL
